According to the supplement of paper PMC10307832:

What follows are cell lines tested with CC(C)(C)c1nc(-c2cccc(NS(=O)(=O)c3c(F)cccc3F)c2F)c(-c2ccnc(N)n2)s1 [Dabrafenib] + CC(=O)Nc1cccc(-n2c(=O)n(C3CC3)c(=O)c3c(Nc4ccc(I)cc4F)n(C)c(=O)c(C)c32)c1 [Trametinib] (partner 0.02 µM) (assay: relative viability (nuclei count vs DMSO), 5 days (fraction); higher = more cells survive). Settings: first compound 0.003 µM.
Procedure, shortened: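 After 5 days of treatment, lung cancer cells in 1536-well plates were fixed and stained in a single step (final 0.05% Triton X-100, 1% formaldehyde, 1 ug/ml Hoechst) and their nuclei counted on 4× images. Treatment had been applied by pin tool the day after seeding as one drug alone or as a fixed anchor-drug dose with five library-drug doses (not always all listed) in √10 steps. Relative viability is the nuclei count of treated wells divided by that of vehicle wells, and values are medians of duplicate plates.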
With LU99A the relative viability was 0.453.
In the case of COR-L23, the relative viability is reported as 0.528.
Cell Line NCI-H1437 has a relative viability of 0.522.
RERF-LC-KJ showed a relative viability of 0.811.
With NCI-H460 the relative viability was 0.144.
In the case of H3255, the relative viability is reported as 0.641.
SW 1573 showed a relative viability of 0.608.
NCI-H838 gave a relative viability of 0.51.
Work on NCI-H3122 yielded a relative viability of 0.273.
For NCI-H1915, the relative viability was 0.295.
In the case of NCI-H727, the relative viability is reported as 0.355.
In the case of NCI-H1975, the relative viability is reported as 0.214.
For HCC-366, the relative viability was 0.324.
NCI-H661 gave a relative viability of 0.562.
NCI-H1993 gave a relative viability of 0.53.
Cell Line NCI-H2009 has a relative viability of 0.262.
NCI-H520 gave a relative viability of 0.665.
Work on LXF-289 yielded a relative viability of 0.677.
LC-2-ad showed a relative viability of 0.891.
201T was tested, and the relative viability was 0.723.
NCI-H1666 gave a relative viability of 0.818.
With NCI-H2023 the relative viability was 0.533.

Same assay, conditions: first compound 0.009487 µM
Cell Line LU99A has a relative viability of 0.384.
With EKVX the relative viability was 0.367.
With COR-L23 the relative viability was 0.432.
NCI-H1437 was tested, and the relative viability was 0.502.
RERF-LC-KJ was tested, and the relative viability was 0.939.
NCI-H1734 was tested, and the relative viability was 0.718.
In the case of BEN, the relative viability is reported as 1.07.
Work on NCI-H460 yielded a relative viability of 0.171.
With H3255 the relative viability was 0.584.
Cell Line SK-LU-1 has a relative viability of 0.437.
For NCI-H23, the relative viability was 0.425.
Cell Line SW 1573 has a relative viability of 0.547.
Work on NCI-H838 yielded a relative viability of 0.614.
With EPLC-272H the relative viability was 0.262.
For NCI-H3122, the relative viability was 0.209.
NCI-H1915 gave a relative viability of 0.249.
NCI-H727 showed a relative viability of 0.353.
For NCI-H1975, the relative viability was 0.316.
Cell Line HCC-366 has a relative viability of 0.348.
In the case of NCI-H2087, the relative viability is reported as 0.18.
With LCLC-97TM1 the relative viability was 0.225.
NCI-H661 showed a relative viability of 0.527.
With NCI-H2405 the relative viability was 0.46.
For NCI-H1993, the relative viability was 0.474.
PC-3 [JPC-3] was tested, and the relative viability was 0.812.
NCI-H2009 showed a relative viability of 0.266.
With NCI-H2347 the relative viability was 0.304.
Work on NCI-H520 yielded a relative viability of 0.653.
LXF-289 gave a relative viability of 0.653.
LC-2-ad showed a relative viability of 0.931.
201T gave a relative viability of 0.744.
In the case of NCI-H1666, the relative viability is reported as 0.782.
For NCI-H2023, the relative viability was 0.547.
NCI-H322M gave a relative viability of 0.492.
HARA was tested, and the relative viability was 0.805.

Same assay, conditions: first compound 0.03 µM
LU99A gave a relative viability of 0.508.
In the case of EKVX, the relative viability is reported as 0.304.
With COR-L23 the relative viability was 0.626.
NCI-H1437 gave a relative viability of 0.688.
RERF-LC-KJ showed a relative viability of 0.961.
NCI-H1734 was tested, and the relative viability was 0.627.
Cell Line NCI-H460 has a relative viability of 0.115.
H3255 was tested, and the relative viability was 0.668.
In the case of SK-LU-1, the relative viability is reported as 0.329.
NCI-H23 showed a relative viability of 0.364.
For SW 1573, the relative viability was 0.669.
Work on NCI-H838 yielded a relative viability of 0.428.
Cell Line EPLC-272H has a relative viability of 0.312.
For NCI-H3122, the relative viability was 0.159.
NCI-H1915 gave a relative viability of 0.264.
With NCI-H1975 the relative viability was 0.317.
HCC-366 gave a relative viability of 0.225.
For NCI-H2087, the relative viability was 0.234.
LCLC-97TM1 was tested, and the relative viability was 0.193.
Work on NCI-H661 yielded a relative viability of 0.59.
NCI-H2405 was tested, and the relative viability was 0.409.
NCI-H1993 gave a relative viability of 0.508.
For PC-3 [JPC-3], the relative viability was 0.751.
Work on NCI-H2009 yielded a relative viability of 0.312.
NCI-H2347 showed a relative viability of 0.247.
With NCI-H520 the relative viability was 0.541.
Cell Line LXF-289 has a relative viability of 0.711.
Cell Line LC-2-ad has a relative viability of 0.901.
201T was tested, and the relative viability was 0.654.
Work on NCI-H1666 yielded a relative viability of 0.837.
With NCI-H2023 the relative viability was 0.55.
HARA showed a relative viability of 0.832.

Same assay, conditions: first compound 0.09487 µM
In the case of LU99A, the relative viability is reported as 0.529.
EKVX showed a relative viability of 0.434.
COR-L23 was tested, and the relative viability was 0.512.
Cell Line NCI-H1437 has a relative viability of 0.579.
Cell Line RERF-LC-KJ has a relative viability of 0.944.
NCI-H1734 showed a relative viability of 0.721.
BEN gave a relative viability of 0.842.
Work on NCI-H460 yielded a relative viability of 0.317.
With H3255 the relative viability was 0.639.
In the case of SK-LU-1, the relative viability is reported as 0.488.
Cell Line NCI-H23 has a relative viability of 0.34.
For SW 1573, the relative viability was 0.648.
NCI-H838 showed a relative viability of 0.429.
EPLC-272H gave a relative viability of 0.349.
NCI-H3122 gave a relative viability of 0.212.
NCI-H1915 showed a relative viability of 0.288.
In the case of NCI-H727, the relative viability is reported as 0.417.
Cell Line NCI-H1975 has a relative viability of 0.321.
HCC-366 showed a relative viability of 0.374.
NCI-H2087 was tested, and the relative viability was 0.209.
LCLC-97TM1 was tested, and the relative viability was 0.21.
With NCI-H661 the relative viability was 0.556.
Cell Line NCI-H2405 has a relative viability of 0.475.
In the case of NCI-H1993, the relative viability is reported as 0.687.
PC-3 [JPC-3] was tested, and the relative viability was 0.893.
NCI-H2009 gave a relative viability of 0.354.
For NCI-H2347, the relative viability was 0.265.
Cell Line NCI-H520 has a relative viability of 0.627.
For LXF-289, the relative viability was 0.672.
LC-2-ad gave a relative viability of 0.862.
For 201T, the relative viability was 0.685.
NCI-H1666 gave a relative viability of 0.832.
With NCI-H2023 the relative viability was 0.581.
For NCI-H322M, the relative viability was 0.53.
HARA was tested, and the relative viability was 0.721.

Same assay, conditions: first compound 0.3 µM
Work on LU99A yielded a relative viability of 0.574.
EKVX gave a relative viability of 0.462.
With COR-L23 the relative viability was 0.656.
With NCI-H1437 the relative viability was 0.73.
RERF-LC-KJ showed a relative viability of 1.05.
NCI-H1734 showed a relative viability of 0.727.
Work on BEN yielded a relative viability of 1.11.
For NCI-H460, the relative viability was 0.341.
With H3255 the relative viability was 0.789.
SK-LU-1 gave a relative viability of 0.456.
NCI-H23 gave a relative viability of 0.508.
SW 1573 showed a relative viability of 0.705.
In the case of NCI-H838, the relative viability is reported as 0.506.
For EPLC-272H, the relative viability was 0.329.
NCI-H3122 showed a relative viability of 0.238.
NCI-H1915 showed a relative viability of 0.313.
In the case of NCI-H727, the relative viability is reported as 0.354.
Work on NCI-H1975 yielded a relative viability of 0.367.
Cell Line HCC-366 has a relative viability of 0.396.
NCI-H2087 was tested, and the relative viability was 0.181.
With LCLC-97TM1 the relative viability was 0.205.
With NCI-H661 the relative viability was 0.568.
Work on NCI-H2405 yielded a relative viability of 0.523.
Cell Line NCI-H1993 has a relative viability of 0.621.
PC-3 [JPC-3] was tested, and the relative viability was 0.863.
NCI-H2009 was tested, and the relative viability was 0.399.
Cell Line NCI-H2347 has a relative viability of 0.313.
NCI-H520 showed a relative viability of 0.628.
With LXF-289 the relative viability was 0.733.
